Experimental data published in PMC4552634, “A New Set of Chemical Starting Points with Plasmodium falciparum Transmission-Blocking Potential for Antimalarial Drug Discovery” (PLoS ONE, 2015).
Where two headings read alike, the source gives them in different places.

Legend:
[1] = tested on: P. falciparum asexual stages; conditions: TCAMS data, cited from earlier work
[2] = tested on: HepG2 cells; assay: Cytotoxicity in HepG2 cells (intracellular ATP, ATPlite, 48 h); format: cell-based, human; conditions: for Ratio IC50 HepG2/IC50 P. falciparum: IC50 HepG2 divided by IC50 P. falciparum gametocytes; for IC50: HepG2 cells, IC50 per ratio column head, unit inferred
[3] = as above; format: cell-based, human; conditions: human, HepG2 cells, IC50 per ratio column head, unit inferred; for IC50 at 48 h: read-out: Cytotoxicity in HepG2
[4] = tested on: P. falciparum stage V gametocytes; assay: Gametocytocidal ATP bioluminescence assay (single point 5 μM and 1 μM, dose-response); format: cell-based, Plasmodium falciparum; conditions: for Ratio IC50 HepG2/IC50 P. falciparum: IC50 HepG2 divided by IC50 P. falciparum gametocytes; for % Inhibition: 5 μM single concentration, 48 h, decrease of ATP level (S1 Table)
Experimental: Purified stage IV-V gametocytes were obtained as previously described [10]. Single point ATP bioluminescence assay and dose–response of positive hits was determined in accordance with the previously published protocol [10].

[5] = tested on: P. falciparum stage V gametocytes; assay: microbe, parasite or virus in culture; set-up: BacTiter-Glo ATP luminescence viability of purified stage V gametocytes in 384-well plates, per cent inhibition versus DMSO; conditions: Plasmodium falciparum, 48 h, read-out: % Inhibition
[6] = asexual stages, read-out: IC50 asexual
[7] = Plasmodium falciparum, P. falciparum gametocytes, average, read-out: IC50 Pf Gametocytes average, IC50 (µM) average
[8] = sexual stages (gametocytes), dose-response, read-out: IC50 sexual
[9] = Plasmodium falciparum, read-out: IC50 Pf Gametocytes average, IC50 (µM) average
[10] = P. falciparum gametocytes, average, read-out: IC50 Pf Gametocytes average, IC50 (µM) average

| Compound | IC50 [1, 6] [µM] | Ratio IC50 HepG2/IC50 P. falciparum [4] | IC50 [4, 7] [µM] | IC50 at 48 h [3] [nM] | inhibition at 5 µM [5] [%] | other results |
| --- | --- | --- | --- | --- | --- | --- |
| CN1c2ccc([N+](=O)[O-])cc2C(C)(C)C12C=Cc1cc(Br)cc([N+](=O)[O-])c1O2 (stereo not drawn) [TCMDC-124178] | 0.785 | >23 | 1.09 |  |  | Ratio IC50 HepG2/IC50 P. falciparum [2]: >23; IC50 [3]: > 25000 nM; IC50 [4, 8]: 1.09 µM |
| Cl.c1ccc2c(NCCCCCCCCCNc3c4ccccc4nc4ccccc34)c3ccccc3nc2c1 [TCMDC-124286] | 0.298 | 4 |  |  |  | IC50 [3]: 6100 nM; IC50 [4, 9]: 1.5 µM; IC50 [4, 8]: 1.5 µM |
| Oc1c(C(Nc2nc3ccccc3s2)c2ccc(OC(F)F)cc2)ccc2cccnc12 (stereo not drawn) [TCMDC-124379] | 0.571 | 55 | 0.44 | 24100 |  | Ratio IC50 HepG2/IC50 P. falciparum [2]: 55 |
| Cc1sc2ncnc(Sc3nnc(N)s3)c2c1C [TCMDC-124542] | 0.399 | >83 | 0.3 | > 25000 |  | IC50 ([1]; P. falciparum asexual stages, read-out: IC50 (µM) Pf asexual stages): 0.4 µM; Ratio IC50 HepG2/IC50 P. falciparum [2]: >83 |
| S=C(NN=Cc1ccccn1)Nc1ccc(Cl)c(Cl)c1 [TCMDC-125522] | 0.768 | 130 | 0.07 | 9100 |  |  |
| S=C(NN=Cc1ccccn1)NC1CC2C=CC1C2 (stereo not drawn) [TCMDC-125752] | 0.721 | 6 | 0.11 | 700 |  | IC50 [4, 8]: 0.112 µM |
| COc1cc2nc(NCCCN3CCCCC3)nc(NCc3ccccc3)c2cc1OC [TCMDC-132012] | 0.998 | 30 | 0.3 | 8940 |  | IC50 [4, 8]: 0.297 µM |
| COc1ccc(CCNc2nc(NCc3ccccc3)c3cc(OC)c(OC)cc3n2)cc1OC [TCMDC-132017] | 0.326 | 0.818 | 5.6 | 4580 |  |  |
| FC(F)(F)c1ccc2[nH]c(-c3ccc(-c4ccc(CNCCN5CCNCC5)cc4)s3)nc2c1 [TCMDC-132862] | 0.91 | 5.37 |  | 6900 |  | IC50 [4, 9]: 1.29 µM; IC50 ([4]; Plasmodium falciparum, read-out: IC50 sexual): 1.28 µM; %_Inh ([4]; gametocytes, primary screen at 5 μM (S10 Table, MCSI analogs)): 105.547% |
| CC(C)c1ccc(CN2CCC(CNC(=O)c3cc(-c4cccc(F)c4)cs3)C2)cc1 (stereo not drawn) [TCMDC-134437] | 1.66 | 12 | 0.45 | 5300 |  | IC50 [4, 8]: 0.455 µM |
| CC(C)(C)c1ccc(CN2CCC(CNC(=O)c3cc(-c4ccccc4C(F)(F)F)cs3)C2)cc1 (stereo not drawn) [TCMDC-134441] | 1.24 | 21 | 0.31 | 6400 |  | IC50 [4, 8]: 0.305 µM |
| CC(C)(C)c1ccc(CN2CCC(CNC(=O)c3cc(-c4cccc(C(F)(F)F)c4)cs3)C2)cc1 (stereo not drawn) [TCMDC-134442] | 1.03 | 12 | 0.42 | 4900 |  |  |
| CC(C)(C)c1ccc(CN2CCC(CNC(=O)c3cc(-c4ccccc4F)cs3)C2)cc1 (stereo not drawn) [TCMDC-134443] | 0.564 | 22 | 0.34 | 7400 |  |  |
| CC(C)(C)c1ccc(CN2CCC(CNC(=O)c3cc(-c4ccccc4Cl)cs3)C2)cc1 (stereo not drawn) [TCMDC-134445] | 0.856 | 12 | 0.69 | 8300 |  |  |
| COc1cccc(-c2csc(C(=O)NCC3CCN(Cc4ccc(C(C)(C)C)cc4)C3)c2)c1 (stereo not drawn) [TCMDC-134447] | 1.18 | 41 | 0.23 | 9500 |  |  |
| Cl.c1ccc2c(Nc3ccc(Cc4ccc(Nc5c6ccccc6nc6ccccc56)cc4)cc3)c3ccccc3nc2c1 [TCMDC-137354] | 0.162 | 2 | 2.3 | 4490 |  |  |
| N=C(NCCCCC1CCCCC1)c1cccc(C(=N)NCCCCC2CCCCC2)n1 [TCMDC-137452] | 0.395 | 7 | 0.22 | 1600 |  |  |
| CC(CNC(=N)c1cccc(C(=N)NCC(C)Oc2cccc(C3CCCCC3)c2)n1)Oc1cccc(C2CCCCC2)c1.Cl (stereo not drawn) [TCMDC-137455] | 0.917 | 15 | 0.24 | 3530 |  |  |
| COc1ccc2nc3cc(Cl)ccc3c(NCCCCN3CCNCC3)c2c1 [TCMDC-137578] | 0.183 | 7.58 | 0.66 | 5000 |  |  |
| COc1ccc2c(c1)CC(C)(C)NC2CCCCCCCCC1NC(C)(C)Cc2cc(OC)ccc21 (stereo not drawn) [TCMDC-137935] | 1.3 | 7 | 0.79 | 5320 |  |  |
| c1ccc(CN2CCN(CCCCNc3c4ccccc4nc4ccccc34)CC2)cc1 [TCMDC-138009] | 0.117 | 12 | 0.79 | 9920 |  | IC50 [4, 8]: 0.795 µM |
| CCCCCCCCN1CCN(CCCCCCNc2c3ccccc3nc3ccccc23)CC1 [TCMDC-138015] | 0.162 | 12 | 0.25 | 3100 |  |  |
| COc1cc2nc(NCc3cccc(CNC(=O)c4ccc(-c5ccc(C(C)=O)cc5)cc4)c3)nc(N)c2cc1OC.O=C(O)C(F)(F)F [TCMDC-138177] | 0.118 | 5 | 2 | 9500 |  | IC50 [4, 8]: 2 µM |
| C=C[C@H]1CN(CCCCCCC)CC[C@H]1CCNc1ccnc2ccc(OC)cc12 [TCMDC-139204] | 0.062 | 3 | 1.08 | 3400 |  |  |

| Compound | IC50 [1, 6] [µM] | Ratio IC50 HepG2/IC50 P. falciparum [4] | IC50 [4, 7] [µM] | IC50 at 48 h [3] [nM] | inhibition at 5 µM [5] [%] | other results |
| --- | --- | --- | --- | --- | --- | --- |
| COc1cc(NCCCNCc2cn(Cc3cc(Br)cc(Br)c3)c3ccccc23)nc2ccccc12 [TCMDC-140677] | 0.185 | 10 | 0.59 | 6130 |  |  |
| COc1ccc2c(NN=CC=Cc3ccccc3)cc(C)nc2c1 [TCMDC-142096] |  |  |  |  | 34 | % Inhibition ([4]; P. falciparum gametocytes): 34% |
| Fc1ccc2c(NN=Cc3ccc(Cl)cc3)ccnc2c1 [TCMDC-142097] |  |  |  |  | 61.1 | % Inhibition ([4]; P. falciparum gametocytes): 61% |
| O=[N+]([O-])c1cccc(/C=N/Nc2ccnc3cc(F)ccc23)c1 [TCMDC-142098] |  |  |  |  | 42.1 | % Inhibition ([4]; P. falciparum gametocytes): 42% |
| Clc1ccc(C=NNc2ccnc3ccccc23)cc1 [TCMDC-142099] |  |  |  |  | -69.1 | % Inhibition ([4]; P. falciparum gametocytes): -69% |
| Fc1ccc2c(NN=Cc3ccccc3)ccnc2c1 [TCMDC-142100] |  |  |  |  | 16.3 | % Inhibition ([4]; P. falciparum gametocytes): 16% |
| Nc1c(I)cc(C(=O)Nc2ccc3nc4c(c(N)c3c2)CCCC4)cc1I [TCMDC-142289] | 0.143 | 20 |  |  | 108 | IC50 [2]: 8030 nM; IC50 [4, 10]: 0.41 µM |
| Nc1cc(/C=C/c2ccc([N+](=O)[O-])s2)nc2ccccc12 [TCMDC-142296] | 0.76 | 13 |  |  | 111 | IC50 [2]: 7600 nM; IC50 [4, 10]: 0.6 µM; IC50 [4, 8]: 0.595 µM |
| Cc1ccccc1Nc1nc(NCCCO)c2ccccc2n1 [TCMDC-142327] |  |  |  |  | 41.9 |  |
| CCCCCNc1nc(Nc2ccccc2C)nc2ccccc12 [TCMDC-142328] |  |  |  |  | 26.7 |  |
| CCCC(=O)c1cnc2c(Oc3cc(Cl)ncn3)cccc2c1Nc1ccccc1C [TCMDC-142329] |  |  |  |  | -26 |  |
| COc1ccccc1CNc1nc(Nc2ccccc2C)nc2ccccc12 [TCMDC-142330] |  |  |  |  | 93.6 |  |
| Cc1cc(F)ccc1Nc1nc(N(C)c2ccccc2)c2cccc(O)c2n1 [TCMDC-142331] |  |  |  |  | -52.7 |  |
| Cc1cc(F)ccc1Nc1nc(N(C)c2ccccc2)c2cc(OCCCN(C)C)ccc2n1 [TCMDC-142332] |  |  |  |  | 57.7 |  |
| Cc1cc(F)ccc1Nc1nc(N(C)c2ccccc2)c2cc(OCCN(C)C)ccc2n1 [TCMDC-142333] |  |  |  |  | 31.3 |  |
| Cc1cc(F)ccc1Nc1nc(N(C)c2ccccc2)c2cccc(OCCO)c2n1 [TCMDC-142334] |  |  |  |  | 32.7 |  |
| NC(=NCc1ccccc1)Nc1nc(-c2ccc(OCCCn3ccnc3)cc2)cs1 [TCMDC-142335] |  |  |  |  | 8.33 |  |
| CCCCOP(=O)(OCCCC)C(=Cc1ccc(O)c2ccccc12)P(=O)(OCCCC)OCCCC [TCMDC-142336] |  |  |  |  | -25.7 |  |
| Cc1ccccc1Nc1cc(Nc2ccccc2C)c2ccccc2n1 [TCMDC-142337] |  |  |  |  | 98.8 |  |
| CCCC(=O)c1cnc2c(OCCCc3c[nH]cn3)cccc2c1Nc1c(C)cccc1C [TCMDC-142338] |  |  |  |  | 28.2 |  |
| CN(C)CCCOc1ccc(-c2csc(NC(N)=NCc3ccccc3)n2)cc1 [TCMDC-142339] |  |  |  |  | 35.3 |  |
| N[C@@H](Cc1cc(I)c(Oc2ccc(O)c(C(=O)O)c2)c(I)c1)C(=O)O [TCMDC-142341] |  |  |  |  | 5.53 |  |
| CCCCCCc1cc(Oc2c(I)cc(C[C@H](N)C(=O)O)cc2I)ccc1O [TCMDC-142342] |  |  |  |  | 5.11 |  |
